Article PMC12121777 (PLOS One, 2025)
Values after ≈ are worked out from the molar mass of the structure shown. Where two headings read alike, the source gives them in different places.

Tests used:
[1] = system: Mtb 331/88 (i.e., H37Rv); assay: MIC, micro method in Šula's semisynthetic medium, drug-susceptible Mtb; format: cell-based, Mycobacterium tuberculosis; settings: Mycobacterium tuberculosis, H37RV
[2] = system: HepG2 cells; assay: Cytotoxicity on HepG2 cell line (CellTiter 96); format: cell-based, human; settings: read-out: IC50 HepG2
[3] = system: Mycobacterium kansasii 6509/96; assay: MIC, micro method in Šula's semisynthetic medium, M. kansasii clinical isolate; format: cell-based; settings: read-out: MIC M. kansasii 6509/96
[4] = system: Mycobacterium avium 330/88; assay: MIC, micro method in Šula's semisynthetic medium, M. avium; format: cell-based
[5] = system: Mtb H37Rv; assay: Metabolic labeling with 14C acetate and TLC lipid analysis; settings: 10× and 100× MIC, 14C acetate, 24 h
[6] = system: Mtb H37Ra pVV2-dprE1/dprE2; assay: microbe, parasite or virus in culture; format: cell-based; settings: Mycobacterium tuberculosis, 672 h, 28 days
[7] = system: Mtb H37Ra pVV2-dprE2; assay: microbe, parasite or virus in culture; format: cell-based; settings: Mycobacterium tuberculosis, 672 h, 28 days
[8] = system: Mtb H37Ra pVV2; assay: microbe, parasite or virus in culture; format: cell-based; settings: Mycobacterium tuberculosis, 672 h, 28 days
[9] = 330/88, 336 h, read-out: MIC M. avium 330/88
[10] = 330/88, 504 h, read-out: MIC M. avium 330/88

Row | Structure (SMILES) | MIC ([1]; 336 h, 14 days) [µM] | MIC ([1]; 504 h, 21 days) [µM] | IC50 ([2]; Homo sapiens, HepG2, 24 h) [µM] | MIC ([3]; 6509/96, 168 h) [µM] | MIC ([3]; 6509/96, 336 h) [µM] | MIC ([3]; 6509/96, 504 h) [µM] | MIC [4, 9] [µM] | MIC [4, 10] [µM] | MIC ([4]; 330/88, read-out: MIC M. avium) [µM] | IC50 [2] [µM] | lipid profile of treated cells vs untreated cells [5] | MIC [6] [µM] | MIC [7] [µM] | MIC [8] [µM]
1 | CCCCCCCCCNC(=O)NNC(=O)c1cc([N+](=O)[O-])cc([N+](=O)[O-])c1 [Compound 4i, 2-(3,5-Dinitrobenzoyl)-N-nonylhydrazine-1-carboxamide] | 0.5 (≈ 0.198 µg/mL) | 1 (≈ 0.395 µg/mL) | 125 | 1 (≈ 0.395 µg/mL) | 1 (≈ 0.395 µg/mL) | 1 (≈ 0.395 µg/mL) | 125 (≈ 49.4 µg/mL) | 250 (≈ 98.9 µg/mL) | 125 to 250 (≈ 49.4 to 98.9 µg/mL) | – | – | – | – | –
2 | CCCCCCCCCCNC(=O)NNC(=O)c1cc([N+](=O)[O-])cc([N+](=O)[O-])c1 [Compound 4j, N-Decyl-2-(3,5-dinitrobenzoyl)hydrazine-1-carboxamide] | 1 (≈ 0.409 µg/mL) | 1 (≈ 0.409 µg/mL) | 141 | 1 (≈ 0.409 µg/mL) | 2 (≈ 0.819 µg/mL) | 4 (≈ 1.64 µg/mL) | > 500 | > 500 | – | – | – | – | – | –
3 | CCCCCCCCCCCNC(=O)NNC(=O)c1cc([N+](=O)[O-])cc([N+](=O)[O-])c1 [Compound 4k, 2-(3,5-Dinitrobenzoyl)-N-undecylhydrazine-1-carboxamide] | 1 (≈ 0.423 µg/mL) | 1 (≈ 0.423 µg/mL) | < 100 | 2 (≈ 0.847 µg/mL) | 4 (≈ 1.69 µg/mL) | 4 (≈ 1.69 µg/mL) | > 500 | > 500 | – | 99.9 | – | – | – | –
4 | CCCCCCCCCCCCNC(=O)NNC(=O)c1cc([N+](=O)[O-])cc([N+](=O)[O-])c1 [Compound 4l, 2-(3,5-Dinitrobenzoyl)-N-dodecylhydrazine-1-carboxamide] | 2 (≈ 0.875 µg/mL) | 2 (≈ 0.875 µg/mL) | 166 | 2 (≈ 0.875 µg/mL) | 2 (≈ 0.875 µg/mL) | 4 (≈ 1.75 µg/mL) | > 250 | > 250 | – | – | – | – | – | –
5 | CCCCCCCCCCCCCNC(=O)NNC(=O)c1cc([N+](=O)[O-])cc([N+](=O)[O-])c1 [Compound 4m, 2-(3,5-Dinitrobenzoyl)-N-tridecylhydrazine-1-carboxamide] | 2 (≈ 0.903 µg/mL) | 4 (≈ 1.81 µg/mL) | 163 | 2 (≈ 0.903 µg/mL) | 2 (≈ 0.903 µg/mL) | 4 (≈ 1.81 µg/mL) | > 500 | > 500 | – | – | – | – | – | –
6 | CCCCCCCCCCCCCCNC(=O)NNC(=O)c1cc([N+](=O)[O-])cc([N+](=O)[O-])c1 [Compound 4n, 2-(3,5-Dinitrobenzoyl)-N-tetradecylhydrazine-1-carboxamide] | 4 (≈ 1.86 µg/mL) | 8 (≈ 3.72 µg/mL) | 207 | 4 (≈ 1.86 µg/mL) | 8 (≈ 3.72 µg/mL) | 8 (≈ 3.72 µg/mL) | > 500 | > 500 | – | – | – | – | – | –
7 | CCCCCCCCCCCCCCCNC(=O)NNC(=O)c1cc([N+](=O)[O-])cc([N+](=O)[O-])c1 [Compound 4o, 2-(3,5-Dinitrobenzoyl)-N-pentadecylhydrazine-1-carboxamide] | 8 (≈ 3.84 µg/mL) | 16 (≈ 7.67 µg/mL) | < 100 | 8 (≈ 3.84 µg/mL) | 8 (≈ 3.84 µg/mL) | 16 (≈ 7.67 µg/mL) | > 500 | > 500 | – | 82.5 | – | – | – | –
8 | CCCCCCCCCCCCNC(=S)NNC(=O)c1cc([N+](=O)[O-])cc([N+](=O)[O-])c1 [Compound 4s, 2-(3,5-Dinitrobenzoyl)-N-dodecylhydrazine-1-carbothioamide] | 2 (≈ 0.907 µg/mL) | 2 (≈ 0.907 µg/mL) | – | 1 (≈ 0.454 µg/mL) | 1 (≈ 0.454 µg/mL) | 2 (≈ 0.907 µg/mL) | 16 (≈ 7.26 µg/mL) | 16 (≈ 7.26 µg/mL) | – | – | accumulation of TMM and TDM | > 4 | 2 (≈ 0.907 µg/mL) | 2 (≈ 0.907 µg/mL)
9 | CCCCNc1nnc(-c2cc([N+](=O)[O-])cc([N+](=O)[O-])c2)o1 [Compound 5d, N-Butyl-5-(3,5-dinitrophenyl)-1,3,4-oxadiazol-2-amine] | 0.5 (≈ 0.154 µg/mL) | 0.5 (≈ 0.154 µg/mL) | > 250 | 1 (≈ 0.307 µg/mL) | 2 (≈ 0.615 µg/mL) | 2 (≈ 0.615 µg/mL) | 64 (≈ 19.7 µg/mL) | 125 (≈ 38.4 µg/mL) | – | – | – | – | – | –
10 | CCCCCNc1nnc(-c2cc([N+](=O)[O-])cc([N+](=O)[O-])c2)o1 [Compound 5e, 5-(3,5-Dinitrophenyl)-N-pentyl-1,3,4-oxadiazol-2-amine] | 0.25 (≈ 0.0803 µg/mL) | 0.25 (≈ 0.0803 µg/mL) | > 250 | 0.25 (≈ 0.0803 µg/mL) | 0.5 (≈ 0.161 µg/mL) | 0.5 (≈ 0.161 µg/mL) | > 500 | > 500 | – | – | – | – | – | –
